Experimental data as given in ChEMBL document CHEMBL5046290, “Design, Synthesis, and Preclinical Profiling of GSK3739936 (BMS-986180), an Allosteric Inhibitor of HIV-1 Integrase with Broad-Spectrum Activity toward 124/125 Polymorphs” (J Med Chem, 2022).

Experiments:
[1] = Plasma protein binding in monkey; format: ADME, cell-free, Macaca mulatta; details: rhesus monkey, read-out: PPB (converted)
[2] = molecular target: Voltage-gated inwardly rectifying potassium channel KCNH2 (Homo sapiens, UniProt Q12809); experiment: Inhibition of hERG; format: toxicity
Voltage-gated inwardly rectifying potassium channel KCNH2, sequence (Q12809 whole entry): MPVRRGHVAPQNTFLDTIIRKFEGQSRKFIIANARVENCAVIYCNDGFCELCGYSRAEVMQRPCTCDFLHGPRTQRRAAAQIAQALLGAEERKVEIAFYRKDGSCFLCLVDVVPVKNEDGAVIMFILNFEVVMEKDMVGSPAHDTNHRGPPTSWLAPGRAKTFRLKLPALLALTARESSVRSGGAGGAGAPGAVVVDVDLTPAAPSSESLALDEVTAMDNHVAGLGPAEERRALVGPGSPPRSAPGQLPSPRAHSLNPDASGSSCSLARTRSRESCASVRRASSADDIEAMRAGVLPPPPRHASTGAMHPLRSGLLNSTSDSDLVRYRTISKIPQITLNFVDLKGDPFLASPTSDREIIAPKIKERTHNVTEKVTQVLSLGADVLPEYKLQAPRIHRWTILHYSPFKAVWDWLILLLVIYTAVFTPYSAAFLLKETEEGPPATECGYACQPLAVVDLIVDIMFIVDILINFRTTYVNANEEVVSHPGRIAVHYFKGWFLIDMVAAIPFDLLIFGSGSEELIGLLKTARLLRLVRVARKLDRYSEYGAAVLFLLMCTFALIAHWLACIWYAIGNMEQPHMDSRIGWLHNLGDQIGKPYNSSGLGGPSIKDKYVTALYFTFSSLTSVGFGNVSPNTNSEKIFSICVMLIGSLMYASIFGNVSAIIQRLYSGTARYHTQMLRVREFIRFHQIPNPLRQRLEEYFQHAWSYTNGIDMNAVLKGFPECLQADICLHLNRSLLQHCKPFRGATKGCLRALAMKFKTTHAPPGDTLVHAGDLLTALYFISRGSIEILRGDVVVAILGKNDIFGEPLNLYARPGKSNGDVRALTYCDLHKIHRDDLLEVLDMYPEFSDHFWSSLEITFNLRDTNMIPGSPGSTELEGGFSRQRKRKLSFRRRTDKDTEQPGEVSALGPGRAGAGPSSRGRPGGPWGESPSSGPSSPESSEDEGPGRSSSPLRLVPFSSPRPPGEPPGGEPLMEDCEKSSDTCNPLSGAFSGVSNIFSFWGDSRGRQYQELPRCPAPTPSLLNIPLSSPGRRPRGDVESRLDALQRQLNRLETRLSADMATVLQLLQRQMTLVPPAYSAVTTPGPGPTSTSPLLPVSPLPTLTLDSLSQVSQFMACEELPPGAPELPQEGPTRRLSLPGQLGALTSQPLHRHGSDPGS

Cc1nc(C)c([C@H](OC(C)(C)C)C(=O)O)c(N2CCC(C)(C)CC2)c1-c1ccc(OCCc2ccc(F)cc2)cc1
fraction unbound [1]: 0.21
IC50 [2]: 670 nM
